The values that follow come from publication PMC7822874, “Chemoprotective antimalarials identified through quantitative high-throughput screening of Plasmodium blood and liver stage parasites” (Scientific Reports, 2021).

Where two headings read alike, the source gives them in different places.

For data set [1], the system named is P. falciparum Dd2 (clone B2) asexual blood stage parasites. As to the kind of experiment: P. falciparum Dd2 asexual blood stage SYBR Green-I 72 h proliferation assay (qHTS). The format is cell-based, Plasmodium falciparum. In general terms: qHTS replaces the single test concentration by a dilution series.
Data set [2] concerns P. falciparum Dd2 Cytb G131S. As to the kind of experiment: SYBR Green ABS proliferation assay, NCGC00374598 selected clone C11. The format is cell-based, Plasmodium falciparum. In short, it runs like this:
(§1)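 Proliferation of cytb-mutant Dd2 clones was measured by SYBR Green-I fluorescence at 72 h, normalized to controls.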

Data set [3] deals with P. falciparum Dd2 Cytb V259L. As to the kind of experiment: SYBR Green ABS proliferation assay, NCGC00473217 selected clone F06. The format is cell-based, Plasmodium falciparum. In short, it runs like this:
as §1

In data set [4] the test system is P. falciparum Dd2 Cytb A122D. The data set can be described thus: SYBR Green ABS proliferation assay, NCGC00473217 selected clone F12. The format is cell-based, Plasmodium falciparum. In short, it runs like this: as §1
For data set [5], the system named is P. falciparum Dd2 Cytb F123L. As to the kind of experiment: SYBR Green ABS proliferation assay, NCGC00473217 selected clone G08. The format is cell-based, Plasmodium falciparum. The gist of the method:
as §1

Data set [6] deals with P. falciparum Dd2 cytochrome b mutant lines. As to the kind of experiment: Drug response of drug-selected cytochrome b mutant lines versus parental Dd2-B2 (panel). The format is cell-based, Plasmodium falciparum. The settings on record: all cytochrome b mutant lines vs Dd2-B2. The procedure: As resistance selection studies implicated the parasite cytochrome bc1 complex in mediating reduced parasite susceptibility to both NCGC00473217 and NCGC00374598, we leveraged these drug-selected parasites to test for altered drug response to a panel of antimalarial compounds.
The P. falciparum parasite Dd2 line was cultured in vitro using standard conditions. […] Tissue culture flasks and assay plates were incubated at 37 °C under a gas mixture of 5% CO2, 5% O2 and 90% N2. […] Significant differences were assessed using two-sided Student’s t-tests. All HTS assays were stopped and read at 72 h. Percent response values represent relative growth as judged by SYBR Green-I fluorescence intensity values normalized to controls.

A short description of a further data set: Aqueous solubility. The format is physicochemical. The settings on record: aqueous media. As to the method: (§2) Pharmacokinetic modeling experiments, parallel artificial membrane permeability assay (PAMPA), solubility, and rat liver microsome stability assessment were performed on all synthetic compounds, as previously described[73]–[75].
The nature of data set [7]: Parallel artificial membrane permeability assay (PAMPA). The format is in vitro ADME. Particulars: for PAMPA pH7.4: pH 7.4. As to the method: as §2
(In PAMPA a lipid-coated filter parts donor from acceptor wells.)

The nature of data set [8]: Rat liver microsomal stability (RLMS). Particulars: rat liver microsomes; for half-life: rat. The procedure: as §2
Background: Liver microsomes are vesicles of endoplasmic reticulum, rich in cytochrome P450 enzymes.

[9] abbreviates: Plasmodium falciparum, DD2, 72 h, SYBR Green 72 h, WT Dd2-B2, read-out: AC50 Log[M] ± SD, Dd2-B2 (parental line) (converted).
Where [10] appears, read: Plasmodium falciparum, DD2, Suppl Table 6, read-out: AC50 (mM), WT (Dd2-B2).
Setting [11] is: Plasmodium falciparum, DD2, NCGC00374598 selected clone, read-out: AC50 Log[M] ± SD, Cytb G131S (converted).
Where [12] appears, read: Plasmodium falciparum, DD2, Suppl Table 6, read-out: AC50 (mM), Dd2 Cytb G131S.
The mark [13] stands for this setting: Plasmodium falciparum, DD2, NCGC00473217 selected clone, read-out: AC50 Log[M] ± SD, Cytb V259L (converted).
[14] abbreviates: Plasmodium falciparum, DD2, Suppl Table 6, read-out: AC50 (mM), Dd2 Cytb V259L.
[15] abbreviates: Plasmodium falciparum, DD2, NCGC00473217 selected clone, read-out: AC50 Log[M] ± SD, Cytb A122D (converted).
[16] abbreviates: Plasmodium falciparum, DD2, Suppl Table 6, read-out: AC50 (mM), Dd2 Cytb A122D.
[17] abbreviates: Plasmodium falciparum, DD2, NCGC00473217 selected clone, read-out: AC50 Log[M] ± SD, Cytb F123L (converted).
[18] abbreviates: Plasmodium falciparum, DD2, Suppl Table 6, read-out: AC50 (mM), Dd2 Cytb F123L.
Where [19] appears, read: Plasmodium falciparum, DD2, 72 h, SYBR Green 72 h, approximate value in μM, read-out: AC50 [μM], Dd2-B2 (parental line) (converted).
The mark [20] stands for this setting: Plasmodium falciparum, DD2, NCGC00374598 selected clone C11, read-out: AC50 [μM], Cytb G131S (converted).
Setting [21] is: Plasmodium falciparum, DD2, NCGC00473217 selected clone F06, read-out: AC50 [μM], Cytb V259L (converted).
Setting [22] is: Plasmodium falciparum, DD2, NCGC00473217 selected clone F12, read-out: AC50 [μM], Cytb A122D (converted).
Setting [23] is: Plasmodium falciparum, DD2, NCGC00473217 selected clone G08, highest concentration 29 µM, read-out: AC50 [μM], Cytb F123L (converted).

By AC50 is commonly meant the midpoint of the concentration-response curve, whichever way the signal moves. For `COc1cc2[nH]c(C)c(-c3ccc(Oc4ccc(OC(F)(F)F)cc4)cc3)c(=O)c2cc1Cl` [ELQ-300, reference compound], the “AC50 Log[M] ± SD, Dd2-B2 (parental line)” value in [1] (SYBR Green 72 h, WT Dd2-B2) was -7.13 Log[M]. Further, the AC50 in [1] (Suppl Table 6, read-out: AC50 (mM), WT (Dd2-B2)) turned out to be 0.075 µM; in data set [2] (Suppl Table 6, read-out: AC50 (mM), Dd2 Cytb G131S), 0.0693 µM; in data set [3] (Suppl Table 6, read-out: AC50 (mM), Dd2 Cytb V259L) it was 0.0873 µM; in data set [4] (Suppl Table 6, read-out: AC50 (mM), Dd2 Cytb A122D), 0.0406 µM; in [5] (Suppl Table 6, read-out: AC50 (mM), Dd2 Cytb F123L), 0.0211 µM. Moreover, in data set [2] (NCGC00374598 selected clone), the “AC50 Log[M] ± SD, Cytb G131S” value is -7.16 Log[M]. The “AC50 Log[M] ± SD, Cytb V259L” value in data set [3] (NCGC00473217 selected clone) is -7.06 Log[M]. The “AC50 Log[M] ± SD, Cytb A122D” value in data set [4] (NCGC00473217 selected clone) was -7.39 Log[M]. Further, the “AC50 Log[M] ± SD, Cytb F123L” value in data set [5] (NCGC00473217 selected clone) was -7.68 Log[M]. In addition, the “change in susceptibility across drug-selected lines” value in data set [6] is “no observed change in susceptibility”.

Regarding `OC(c1cc(C(F)(F)F)nc2c(C(F)(F)F)cccc12)C1CCCCN1` (stereo not drawn) [Mefloquine, mefloquine, reference compound], the half-maximal activity concentration (AC50) is 0.0776 µM in data set [1] (setting [9]); 0.0778 µM in [1] (setting [10]); 0.0832 µM in data set [2] (setting [11]); 0.0841 µM in data set [2] (setting [12]); 0.123 µM in data set [3] (setting [13]); 0.123 µM in data set [3] (setting [14]). For the same compound, the concentration at half-maximal activity (AC50) is 0.129 µM in data set [4] (setting [15]), 0.128 µM in [4] (setting [16]), 0.0977 µM in [5] (setting [17]) and 0.0979 µM in data set [5] (setting [18]). In data set [6], the “change in susceptibility across drug-selected lines” value is on record as “no observed change in susceptibility”.

Regarding `CCN(CC)Cc1cc(Nc2ccnc3cc(Cl)ccc23)ccc1O` [Amodiaquine, amodiaquine, reference compound], the AC50 in data set [1] (setting [9]) is 0.0468 µM; in [1] (setting [10]), 0.0473 µM; in data set [2] (setting [11]) it was 0.049 µM; in data set [2] (setting [12]) it was 0.0491 µM; in data set [3] (setting [13]), 0.0724 µM; in data set [3] (setting [14]), 0.0721 µM. Besides, the AC50 is 0.0661 µM in [4] (setting [15]), 0.0668 µM in data set [4] (setting [16]), 0.055 µM in data set [5] (setting [17]) and 0.0551 µM in data set [5] (setting [18]). The “change in susceptibility across drug-selected lines” value in data set [6] is on record as “no observed change in susceptibility”.

In the case of `CCN(CC)CCCC(C)Nc1ccnc2cc(Cl)ccc12` (stereo not drawn) [chloroquine], in data set [6], the “change in susceptibility across drug-selected lines” value is given as “no observed change in susceptibility”.

For orientation: solubility means the dissolved amount per volume that the medium holds. What is called half-life is the time needed for the level to fall by half in the phase considered. A low value points to fast loss. `CCCN1C(CC(C)C)=NS(=O)(=O)c2cc(NC(=O)c3ccsc3)ccc21` [NCGC00521157]: the AC50 in data set [1] (setting [9]) is 2 µM; in data set [1] (setting [19]), 2 µM; in data set [2] (setting [20]), 2.08 µM; in data set [2] (setting [11]) it was 2.09 µM; in [3] (setting [21]) it was above 29 µM; in [4] (setting [22]) it was above 29 µM. In addition, the AC50 in [5] (setting [23]) is above 29 µM. In the data set “Aqueous solubility”, this compound registered a solubility below 1 µg/mL. Moreover, the “PAMPA pH7.4” value in data set [7] is given as 178 1e-6 cm/s. This compound yielded a half-life in data set [8] of 3.7 min.

Turning to `CC(C)CC1=NS(=O)(=O)c2cc(NC(=O)c3ccc(F)s3)ccc2N1C` [NCGC00651708], the AC50 in data set [1] (setting [9]) is 1.66 µM; in [1] (setting [19]), 1.68 µM; in [2] (setting [20]), above 29 µM; in data set [3] (setting [21]) it was above 29 µM; in data set [4] (setting [22]) it was above 29 µM; in [5] (setting [23]) it was above 29 µM. The compound also yielded a solubility in the data set “Aqueous solubility” below 1 µg/mL. The “PAMPA pH7.4” value in data set [7] is given as 3.07 1e-6 cm/s. Moreover, in data set [8], the “RLMS T1/2” value is “much better stability”. In addition, the half-life in data set [8] was above 30 min.

Usually Papp stands for a coefficient for how fast a substance crosses the barrier. A higher Papp goes with fast passage. As for `CCCN1C(CC2CCCCC2)=NS(=O)(=O)c2cc(NC(=O)c3cccs3)ccc21` [NCGC00532404], the AC50 was 0.355 µM in data set [1] (setting [9]); 0.356 µM in data set [1] (setting [19]); 0.966 µM in data set [2] (setting [20]); 0.955 µM in data set [2] (setting [11]); 1.5 µM in data set [3] (setting [21]); 1.51 µM in data set [3] (setting [13]). Also, the AC50 in data set [4] (setting [22]) is 1.53 µM; in data set [4] (setting [15]), 1.51 µM; in data set [5] (setting [23]), above 29 µM. In addition, the solubility in the data set “Aqueous solubility” is below 1 µg/mL. The compound also showed a Papp in [7] (PAMPA) below 500 ×10⁻⁶ cm/s. Further, the half-life in data set [8] came out at 3.4 min.

As to `CCCN1C(CC(C)C)=NS(=O)(=O)c2cc(NC(=O)c3sccc3Cl)ccc21` [NCGC00531529], the AC50 in data set [1] (setting [9]) is 2.24 µM; in [1] (setting [19]), 2.25 µM; in data set [2] (setting [20]) it was 0.586 µM; in data set [2] (setting [11]) it was 0.589 µM; in data set [3] (setting [21]) it was 3.72 µM; in data set [3] (setting [13]), 3.72 µM. Besides, the AC50 in [4] (setting [22]) is 0.603 µM; in data set [4] (setting [15]), 0.603 µM; in data set [5] (setting [23]), above 29 µM. Further, the solubility in “Aqueous solubility” was below 1 µg/mL. In addition, the “PAMPA pH7.4” value in [7] was 678 1e-6 cm/s. In data set [8], this compound came in with a half-life of 2.8 min.

Turning to `CO[C@H]1O[C@@H]2O[C@@]3(C)CC[C@H]4[C@H](C)CC[C@@H]([C@H]1C)[C@@]24OO3` [Artemether, artemether, reference compound], the AC50 is 0.0513 µM in data set [1] (setting [9]); 0.0511 µM in data set [1] (setting [10]); 0.0324 µM in data set [2] (setting [11]); 0.0322 µM in [2] (setting [12]); 0.0661 µM in data set [3] (setting [13]); 0.0668 µM in data set [3] (setting [14]). Also, the half-maximal activity concentration (AC50) was 0.0661 µM in data set [4] (setting [15]), 0.0668 µM in [4] (setting [16]), 0.0363 µM in data set [5] (setting [17]) and 0.0361 µM in data set [5] (setting [18]). In addition, the “change in susceptibility across drug-selected lines” value in data set [6] is on record as “no observed change in susceptibility”.

As for `CCCN1C(CC(C)C)=NS(=O)(=O)c2cc(NC(=O)C3CCCC3)ccc21` [NCGC00521158], the concentration at half-maximal activity (AC50) is 2.69 µM in data set [1] (setting [9]); 2.72 µM in [1] (setting [19]); 4.15 µM in [2] (setting [20]); 4.17 µM in data set [2] (setting [11]); 2.16 µM in [3] (setting [21]); 2.14 µM in data set [3] (setting [13]). Further, the AC50 is 5.25 µM in data set [4] (setting [22]), 5.25 µM in [4] (setting [15]), 11.7 µM in data set [5] (setting [23]) and 11.7 µM in data set [5] (setting [17]). In addition, the solubility in “Aqueous solubility” was below 1 µg/mL. Moreover, the “PAMPA pH7.4” value in data set [7] is 726 1e-6 cm/s. Besides, in data set [8], the half-life was 4.8 min.
